The values below are quoted from earlier work in patent US20210121408A1, “Methods of Administering Cannabinoid to People Diagnosed With HIV” (priority 2019, published 2021).

For the compound `CCCCCc1cc(O)c2c(c1)OC(C)(C)[C@@H]1CCC(C)=C[C@@H]21` [THC, delta-9-tetrahydrocannabinol], the “solubility in ethanol, acetone, chloroform and light petroleum” value (ethanol, acetone, chloroform and light petroleum) is given as “soluble”. Where the note is “water”, the solubility in water entry was “insoluble”.
